The values below come from PubChem BioAssay AID651653 (NMMLSC, 2012).

Assay [1] has as its system K562-ABCB6 viability, CellTiter-Glo luminescence, 18 h. Description: viability loss, K562-ABCB6 cells – cell-based, CellTiter-Glo luminescence, cherry picks 01-02, cytotoxicity control for ABCB6 inhibitor project, dose response (AID 651653). On the technique in general: ATP-based viability assays read luminescence as a measure of living cells.
Assay in assay [2]: as above
As to conditions: K562-ABCB6 viability, CellTiter-Glo luminescence, 18 h; at 100 µM (top of the series).

Active and inactive are the calls of the source.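 The calls were made as follows: active = viability at the top tested dose under 50% of the solvent-only control; inactive = the rest.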

For the molecule `Cc1cccc(CS(=O)(=O)c2ncc(Cl)c(C(=O)Nc3ccc(F)cc3)n2)c1`, the EC50 in assay [1] was 1520 nM.
As to `Cc1cccc(CS(=O)(=O)c2ncc(Cl)c(C(=O)Nc3nnc(C(C)C)s3)n2)c1`, in assay [1], the EC50 is 6520 nM.
Still for that read-out and setting: the same measure for `Cc1nnc(NC(=O)c2nc(S(=O)(=O)Cc3ccccc3)ncc2Cl)s1`: 811 nM.
`CCCc1nnc(NC(=O)c2nc(S(=O)(=O)Cc3cccc(C)c3)ncc2Cl)s1`: in assay [2], the viability was 65.4% (inactive).
`C[N+](C)(C)CC1CCCC(C[N+](C)(C)C)C1=O` (stereo not given): the EC50 in assay [1] is 245 nM.
For the molecule `CC(=O)Nc1ccc(NC(=O)c2nc(S(=O)(=O)Cc3ccccc3)ncc2Cl)cc1`, the EC50 in assay [1] was 1190 nM.
Same read-out and setting: the same measure for `Cc1cccc(C)c1NC(=O)c1nc(S(=O)(=O)Cc2ccccc2)ncc1Cl`: 2110 nM; for `Cc1ccc(NC(=O)c2nc(S(=O)(=O)Cc3ccccc3C)ncc2Cl)cc1C`: 1450 nM.
In the case of `CCOc1ccccc1NC(=O)c1nc(S(=O)(=O)Cc2ccccc2)ncc1Cl`, the EC50 in assay [1] was 11800 nM.
Consider `CCc1ccc(NC(=O)c2nc(S(=O)(=O)Cc3ccccc3)ncc2Cl)cc1`, for which the EC50 in assay [1] was 1620 nM.
For `Cc1ccccc1CS(=O)(=O)c1ncc(Cl)c(C(=O)Nc2ccc(F)cc2)n1`, the EC50 in assay [1] was 7150 nM.
Consider `CCN(CC)S(=O)(=O)c1cccc(-n2c(O)c(C=Nc3ccccc3C(=O)O)c3ccccc3c2=O)c1`, for which the EC50 in assay [1] is 13100 nM.
Still for that read-out and setting: the same measure for `CC(=O)Nc1ccc(NC(=O)c2nc(S(=O)(=O)Cc3cccc(C)c3)ncc2Cl)cc1`: 1920 nM; for `Cc1ccc(NC(=O)c2nc(S(=O)(=O)Cc3ccccc3)ncc2Cl)cc1`: 1800 nM.
With `CCOC(=O)c1ccc(NC(=O)c2nc(S(=O)(=O)Cc3ccccc3)ncc2Cl)cc1`, the EC50 in assay [1] was 1790 nM.
On to `Cc1ccc(CS(=O)(=O)c2ncc(Cl)c(C(=O)Nc3nnc(C(C)C)s3)n2)cc1`, for which the EC50 in assay [1] was 3930 nM.
Take `O=C(Nc1ccc(F)cc1)c1nc(S(=O)(=O)Cc2ccccc2)ncc1Cl`: in assay [1], the EC50 is 1540 nM.
With `CCOc1ccccc1NC(=O)c1nc(S(=O)(=O)Cc2cccc(C)c2)ncc1Cl`, the EC50 in assay [1] was 1430 nM.
In the case of `COC(=O)c1ccc(NC(=O)c2nc(S(=O)(=O)Cc3cccc(C)c3)ncc2Cl)cc1`, in assay [1], the EC50 is 688 nM.
As for `Cc1ccc(CS(=O)(=O)c2ncc(Cl)c(C(=O)Nc3ccc(OC(F)F)cc3)n2)cc1`, the EC50 in assay [1] was 3540 nM.

As usually defined, the EC50 is the concentration giving half of the maximal effect. A word on the viability: it is the share of living cells, or the viability signal relative to a control.
